# Literature values as cited in patent US10226421B2, “Pharmaceutical composition containing budesonide and formoterol” (Zambon S.P.A., priority 2013, dated 2019).
# Conditions: phospholipids in the presence of a humidity
row,Structure (SMILES),glass-rubber transition temperatures (Tg)
1,"CCCCCCCCCCCCCCCC(=O)OC[C@H](COP(=O)([O-])OCC[N+](C)(C)C)OC(=O)CCCCCCCCCCCCCCC [DPPC, dipalmitoyl-phosphatidylcholine]",41 °C
2,"CCCCCCCCCCCCCCCC(=O)OCC(COP(=O)(O)OCCN)OC(=O)CCCCCCCCCCCCCCC (stereo not drawn) [DPPE, dipalmitoyl-phosphatidylethanolamine]",63 °C
3,"CCCCCCCCCCCCCCCCCC(=O)OC[C@H](COP(=O)([O-])OCC[N+](C)(C)C)OC(=O)CCCCCCCCCCCCCCCCC [DSPC, distearoyl-phosphatidylcholine]",55 °C
